Structures can show the parent of a compound that is named as a salt.
Target: T1, α-Gal A (Homo sapiens, UniProt P06280)
T1 construct: purchased JCR Pharmaceuticals Co. Ltd, (Japan) JR-051; host or cells: CHO cells
T1 sequence (P06280 32-429): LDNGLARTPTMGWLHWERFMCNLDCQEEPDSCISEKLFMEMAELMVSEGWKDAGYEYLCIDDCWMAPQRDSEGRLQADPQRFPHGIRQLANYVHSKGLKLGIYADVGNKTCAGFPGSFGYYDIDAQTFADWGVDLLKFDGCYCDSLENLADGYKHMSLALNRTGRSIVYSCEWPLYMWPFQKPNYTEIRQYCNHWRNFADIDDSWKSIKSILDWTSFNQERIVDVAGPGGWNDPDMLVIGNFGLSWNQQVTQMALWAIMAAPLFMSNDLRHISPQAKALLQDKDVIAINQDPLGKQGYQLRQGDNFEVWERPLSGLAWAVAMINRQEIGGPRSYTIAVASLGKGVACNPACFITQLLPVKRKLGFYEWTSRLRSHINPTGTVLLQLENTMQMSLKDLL
Experiment: α-Gal A stability in whole blood ex vivo at 37° C.
Type: in vitro ADME
Details: 5 nM and 50 nM α-Gal A formulated with 10 μM DGJ
Experimental: The effect of co-formulating α-Gal A with DGJ on α-Gal A stability in blood ex vivo was examined. Time-dependent loss of α-Gal A activity in whole blood at 37° C. was determined. 5 nM and 50 nM α-Gal A was formulated with or without 10 μM DGJ.

## OC[C@H]1NC[C@H](O)[C@@H](O)[C@H]1O [migalastat HCl, (2R,3S,4R,5S)-2-(hydroxymethyl) piperdine-3,4,5-triol]
  effect on α-Gal A stability in whole blood: stabilized the enzyme and prevented enzyme inactivation

Reference: patent publication US10155027B2, “Alpha-galactosidase A and 1-deoxygalactonojirimycin co-formulation for the treatment of fabry disease” (Amicus Therapeutics, Inc., priority 2012, dated 2018)
